From patent publication US8383172B2, “Recovery of hydrophobic peptides from oils” (University of Saskatchewan, priority 2007, dated 2013)

Key:
[1] = test system: human lung adenocarcinoma cells (Calu-3); assay: Microarray analysis of apoptosis-regulating genes in Calu-3 cells; assay type: cell-based; design: key: ‘+’ and ‘−’ indicates genes over- and under-expressed, respectively; ‘+’ and ‘−’ indicates genes over- and under-expressed, respectively
Protocol: Cell culture. Human bronchial epithelial adenocarcinoma cell line (Calu-3) was obtained from ATCC (Manassas, Va., USA) and cultured in 50 cm^2 plastic culture flasks in modified eagle's medium (MEM) supplemented with 10% fetal bovine serum, glutamine (4 mM; Sigma-Aldrich, Canada) and penicillin (100 U mL-1)-streptomycin (100 μg mL-1) solution (Sigma-Aldrich, Canada). Cells were cultured at an initial density of 10^6 cells/mL, and fresh media was added on day 3. Cells were grown in an incubator at 37° C., 5% CO2, and 100% humidity.
Chemical treatments. Calu-3 cells were treated with different concentrations (0-100 μM) of cyclolinopeptide A (“CLA”), cyclolinopeptide C (“CLC”) or cyclolinopeptide E (“CLE”). Camptothecin (Sigma-Aldrich, Canada; 4 μM) and dimethylsulfoxide (DMSO) were used as positive and negative controls, respectively. Camptothecin is useful as a positive control in studies testing the effect of certain compounds on apoptosis in cancer cell lines. Camptothecin is a cytotoxic quinoline alkaloid that inhibits the DNA enzyme topoisomerase I (topo I) and has shown remarkable anti-cancer activity. Two analogs of camptothecin have been approved and are used in cancer chemotherapy.
Current microarray design platforms facilitate the design of gene expression arrays for analysis of a compound of interest and its impact on a large number of known genes. Cyclolinopeptide A, cyclolinopeptide C and cyclolinopeptide E were therefore used in microarray analysis to determine their effect on under- and over-expression of genes involved in the regulation of apoptosis in human lung adenocarcinoma cells (Table 2).

heat shock gene HSP70A = assay: Expression of heat shock gene HSP70A in nematode cultures exposed to cyclolinopeptide-A; assay type: in vivo, Caenorhabditis elegans; conditions: two hours exposure, C. elegans
Description: FIG. 17 is a chart showing the effects of cyclolinopeptide A on the expression of the HSP70A gene in Caenorhabditis elegans. Bars on the columns represent standard deviations. Letters above the bars designate significant differences determined by data analysis using one-way analysis of variance with pair-wise multiple comparisons were done by the Tukey test; and
The following example relates to the use of selected purified individual cyclolinopeptides recovered and processed as disclosed herein for modulating the expression of stress genes. Nematode cultures (Caenorhabditus elegans) were exposed for two hours to one of DMSO (negative control), 0.1 μM cyclolinopeptide-A, 1.0 μM cyclolinopeptide-A, 10.0 μM cyclolinopeptide-A, and 100.0 μM cyclolinopeptide-A, and then cultured to assess the effects of cyclolinopeptide-A on the expression of the heat shock gene HSP70A by C. elegans. The control treatment was unamended culture medium.

| Substance | BAK gene up- or down-regulated [1] | BCL-2 gene up- or down-regulated [1] | CDEB gene up- or down-regulated [1] | FASLG gene up- or down-regulated [1] | Fas gene up- or down-regulated [1] | TNF gene up- or down-regulated [1] | TP53BP2 gene up- or down-regulated [1] | TP53 gene up- or down-regulated [1] | increase in the production of the Hsp70A protein (heat shock gene HSP70A; 0.1 μM in culture media) | increase in the production of this heat shock protein (Hsp70A) (heat shock gene HSP70A; 1.0 μM in culture media) | increase in the production of the Hsp70A protein (heat shock gene HSP70A; 10.0 μM in culture media) | CASP10 gene up- or down-regulated [1] | CIDEA gene up- or down-regulated [1] | HRK gene up- or down-regulated [1] |
| --- | --- | --- | --- | --- | --- | --- | --- | --- | --- | --- | --- | --- | --- | --- |
| cyclolinopeptide A [CLP-A] | + | + | + | + | + | + | + | + | 30% | 3.5 fold | 30% |  |  |  |
| cyclolinopeptide C [CLP-C] |  | − | + |  | + | + | + | + |  |  |  | + | + | + |
| cyclolinopeptide E [CLP-E] |  | − | + |  | + | + | + |  |  |  |  |  | + | + |
